Laboratory results from PubChem BioAssay AID1013 (Columbia University Molecular Screening Center, 2008).
Activity calls are given as the source filed them. No rule for the calls is given here.

Tests used:
[1] = inhibitors of TNFa-induced VCAM1 expression, confirmation, imaging, TNFa stimulus, retest and dose response (AID 1013); details: TNFa-stimulated cells, VCAM1 expression imaging; cell count; at 10 µM; stronger effect = lower value;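 as to cell count: compound on cells 1 h before TNFa then 24 h more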
[2] = tested on: TNFa-stimulated cells, VCAM1 expression imaging; assay: as above

Row | Compound | cell count [1] [%] | IC50 [2]
1 | CCc1ccc(C(=O)/C=C/c2ccc([N+](=O)[O-])o2)cc1 | 94.9 | > 10 µM (inactive)
2 | Cc1cc(C)c2nc(SCC(=O)N3CC(=O)Nc4ccccc43)c(C#N)cc2c1 | 47.2 | 4.81 µM
3 | O=C(NC(Nc1nc2ccc([N+](=O)[O-])cc2s1)(C(F)(F)F)C(F)(F)F)c1ccccc1 | 46.9 | 0.34 µM
4 | O=C(Nc1ccccc1)c1nnsc1S(=O)c1ccc(Cl)cc1 (stereo unspecified) | 95.6 | > 10 µM (inactive)
5 | COc1ccc(NC(=O)/C(Cl)=C(/Cl)S(=O)(=O)Cc2ccc(C)cc2)cn1 | 22.9 | 3.25 µM
6 | CCN(CC)c1ccc(C2=NNC(=O)CC2C)cc1[N+](=O)[O-] (stereo unspecified) | 50.8 | 0.0384 µM
7 | Cc1cccc(NC(=O)CSc2nc3ccc(NC(=O)CSc4nnnn4-c4ccccc4)cc3s2)c1C | 107 | > 10 µM (inactive)
8 | O=Cc1cc2ccccc2nc1SCc1ccc(Cl)c(Cl)c1 | 109 | > 10 µM (inactive)
9 | COc1ccccc1-n1cnc2cc(NCc3ccco3)ccc21 | 41.8 | > 10 µM (inactive)
10 | OCCN=C1CCCc2c1[nH]c1ccc(Br)cc21 | 76.3 | 0.15 µM
11 | CN1Cc2cc(C(=O)c3cc(Cl)cc(CSc4ncccn4)c3O)cnc2NC1=O | 85.8 | > 10 µM (inactive)
12 | O=S(=O)(C/C(=C/CO)S(=O)(=O)c1ccccc1)c1ccccc1 | 9.93 | 1.63 µM
13 | N=c1c2c(-c3ccccc3)c(-c3ccccc3)n(Cc3ccccc3)c2ncn1CCCn1ccnc1 | 56.8 | 1.06 µM
14 | O=C(N/N=C/C(Br)=C/c1ccccc1)c1n[nH]c2c1CCC2 | 28.6 | 0.0993 µM
15 | O=C(OCn1ncc(Br)c(Br)c1=O)c1c(F)cccc1F | 54.9 | 8.04 µM
16 | CCn1c2ccccc2c2cc(NC(=O)c3cc(OC)c(OC)c(OC)c3)ccc21 | 33.6 | 2.79 µM
17 | Cc1cc(C)c(S(=O)(=O)Nc2ccc3c4c(cccc24)CC3)c(C)c1 | 106 | > 10 µM (inactive)
18 | Cc1ccc(O)c(NC(=O)CCC2CCCCC2)c1 | 113 | > 10 µM (inactive)
19 | Nc1nnnn1/N=C/C(Br)=C/c1ccccc1 | 106 | > 10 µM (inactive)
20 | CC[C@@H](C)[C@H](NC(=O)OC(C)(C)C)c1nnc(S(=O)(=O)Cc2cc(C)ccc2C)o1 | 117 | > 10 µM (inactive)

Row | Compound | cell count [1] [%] | IC50 [2]
21 | COc1cc(C2C3=C(Nc4ncnn42)c2ccccc2CC3)cc(OC)c1OC (stereo unspecified) | 27.6 | 1.76 µM
22 | O=C(N/N=C/C=C/c1ccccc1)c1n[nH]c2c1CCC2 | 103 | > 10 µM (inactive)
23 | CCOc1ccccc1C(=O)N1CCN(c2cccc(Cl)c2)CC1 | 15.7 | 0.231 µM
24 | CCC1=Nc2cc(C(=O)NCCCOC)ccc2Sc2ccccc21 | 34.9 | 1.67 µM
25 | Cc1ccccc1NC1=C/C(=N\S(=O)(=O)c2cccs2)c2ccccc2C1=O | 99.8 | > 10 µM (inactive)
26 | Cc1ccc2[nH]c3c(c2c1)CCC3=O | 72 | 1 µM
27 | Cc1cc(NC(=O)CSc2nc(-c3cccs3)cc(C(F)(F)F)n2)no1 | 111 | > 10 µM (inactive)
28 | C#CC(=O)N(c1cccc(OC)c1)C(C(=O)NC1CCCC1)c1cccs1 (stereo unspecified) | 0.98 | 1.77 µM
29 | CC(/C=N/NC(=O)c1cc(-c2ccncc2)nc2ccccc12)=C\c1ccco1 | 30.4 | 3.6 µM
30 | CC(/C=N/NC(=O)c1cc(-c2ccc(Cl)cc2)nc2ccccc12)=C\c1ccco1 | 116 | > 10 µM (inactive)
31 | O=S(=O)(c1ccc2c(c1)C(=NO)c1cc(S(=O)(=O)N3CCCCC3)ccc1-2)N1CCCCC1 | 118 | > 10 µM (inactive)
32 | O=[N+]([O-])c1ccc(Sc2nc3ccccc3o2)c([N+](=O)[O-])c1 | 106 | > 10 µM (inactive)
33 | COc1cc(C(=O)N/N=C/c2ccsc2C)cc(OC)c1OC | 48.6 | > 10 µM (inactive)
34 | O=C1C(=O)c2ccc(-c3ccccc3)cc2-c2ccccc21 | 109 | > 10 µM (inactive)
35 | COC(=O)c1ccccc1NC(=O)Cn1c(-c2nonc2N)nc2ccccc21 | 104 | > 10 µM (inactive)
36 | O=C(c1ccc(Br)cc1)c1cc([N+](=O)[O-])ccc1N1CCCCC1 | 102 | > 10 µM (inactive)
37 | C/C=C/COC(=O)c1[nH]c2c(c1C)C(=O)CC(c1ccco1)C2 (stereo unspecified) | 73.9 | > 10 µM (inactive)
38 | Cc1ccc(-n2ncc3c(N4CCN(c5ccccc5)CC4)ncnc32)c(C)c1 | 111 | > 10 µM (inactive)
39 | CC(C)Oc1ccccc1C1CC(=O)Nc2cc3c(cc21)OCO3 (stereo unspecified) | 80.6 | > 10 µM (inactive)
40 | CC1CCC/C=C/C2CC(O)CC2C(O)/C=C/C(=O)O1 (stereo unspecified) | 19.2 | 0.112 µM

Row | Compound | cell count [1] [%] | IC50 [2]
41 | CCN(CC)c1ccc(-c2nn3c(-c4n[nH]c5c4CCC5)nnc3s2)cc1 | 57.7 | > 10 µM (inactive)
42 | O=S(=O)(c1ccc(Cl)c(Cl)c1)c1snnc1-c1ccccc1 | 99.6 | 7.93 µM
43 | Oc1ccc(Nc2nc(-c3ccc4ccccc4c3)cs2)cc1 | 92.9 | > 10 µM (inactive)
44 | CC(C)(C)C(=O)/C(=C\c1cccc([N+](=O)[O-])c1)n1cncn1 | 1.73 | 1.09 µM
45 | Cc1cc(=O)oc2cc(OCC3CC(c4ccccc4Cl)=NO3)ccc12 (stereo unspecified) | 106 | > 10 µM (inactive)
46 | Cc1ccc(O)c(NC(=O)C2CC(c3c(F)cccc3Cl)=NO2)c1 (stereo unspecified) | 105 | > 10 µM (inactive)
47 | C=CCSc1nc2ccccc2n1C(=O)/C=C/c1cc(OC)c(OC)c(OC)c1 | 106 | > 10 µM (inactive)
48 | C=CCn1c(SCc2c(C)noc2C)nc2ccccc2c1=O | 43.3 | > 10 µM (inactive)
49 | O=C1C(=O)c2ccccc2-c2ccccc21 | 44.1 | 3 µM
50 | O=[N+]([O-])c1ccc(O)c(/C=N/Nc2ccc(Cl)nn2)c1 | 106 | > 10 µM (inactive)
51 | COc1ccc(C2=Nn3c(nnc3-c3ccc(OC)cc3)SC2)cc1 | 114 | > 10 µM (inactive)
52 | COc1cc(/C=N/Nc2snc(SC)c2C#N)ccc1O | 105 | > 10 µM (inactive)
53 | COc1ccc(OC)c(NS(=O)(=O)c2ccc(N3CCCC3=O)cc2)c1 | 43.7 | 2.93 µM
54 | CCN(CC)c1ccc2cc(-c3nc4ccccc4n3C)c(=O)oc2c1 | 106 | > 10 µM (inactive)
55 | CCN(CC)c1ccc2c(c1)OC(N)=C(C#N)C2c1cccnc1 (stereo unspecified) | 29.8 | 0.38 µM
56 | COc1ccc(-c2cc3ccccc3oc2=O)cc1NC(=O)c1ccc([N+](=O)[O-])o1 | 107 | > 10 µM (inactive)
57 | CCN1/C(=C\C=C\C2=[N+](CC)c3ccccc3C2(C)C)C(C)(C)c2ccccc21 | 60.4 | 0.41 µM
58 | O=C(Nc1nccs1)c1cccc(N2C(=O)c3cccc4c([N+](=O)[O-])ccc(c34)C2=O)c1 | 102 | > 10 µM (inactive)
